From EPA's ToxRefDB 2 come the findings set out here.

For data set [1], the system named is rat. The note with it: Sub-acute repeat dose toxicity; sprague dawley; Oral; Gavage/Intubation; dose end: 14 day; group: systemic; systemic / clinical chemistry / [other] / [other] + systemic / clinical chemistry / 5' nucleotidase / 5' nucleotidase + systemic / clinical ….
Data set [2] concerns primate. To be noted: Sub-acute repeat dose toxicity, Oral, Gavage/Intubation, dose end: 34 day, group: systemic.
Data set [3] deals with primate. The note with it: Sub-acute repeat dose toxicity; Oral; Gavage/Intubation; dose end: 8 day; group: systemic; systemic / in life observation / clinical signs / emesis.
Data set [4] has as its system mouse. To be noted: Sub-acute repeat dose toxicity, Oral, Gavage/Intubation, dose end: 14 day, group: systemic.
The test system of data set [5] is mouse. The note with it: Sub-acute repeat dose toxicity; Oral; Gavage/Intubation; dose end: 14 day; group: systemic; systemic / clinical chemistry / [other] / [other] + systemic / clinical chemistry / cytochrome p450, nos / cytochrome p450, nos + systemic….
The subject of data set [6] is rat. To be noted: Sub-acute repeat dose toxicity, sprague dawley, Oral, Gavage/Intubation, dose end: 34 day, group: systemic.
Data set [7] relates to rat. The note with it: Sub-acute repeat dose toxicity; sprague dawley; Oral; Gavage/Intubation; dose end: 8 day; group: systemic; systemic / clinical chemistry / potassium / potassium + systemic / in life observation / body weight / body weight + systemic / clinical ….
The subject of data set [8] is mouse. The note with it: Sub-acute repeat dose toxicity; Oral; Gavage/Intubation; dose end: 14 day; group: systemic; systemic / clinical chemistry / [other] / [other] + systemic / clinical chemistry / cytochrome p450, nos / cytochrome p450, nos + systemic…. This is another data set of the same source.
Data set [9] has as its system primate. To be noted: Sub-acute repeat dose toxicity; Oral; Gavage/Intubation; dose end: 4 day; group: systemic; systemic / clinical chemistry / chloride / chlorine + systemic / clinical chemistry / cholesterol / cholesterol + systemic / clinical ….
Data set [10] relates to rat. The note with it: Sub-acute repeat dose toxicity, sprague dawley, Oral, Gavage/Intubation, dose end: 14 day, group: systemic.
Data set [11] deals with rat. To be noted: Prenatal developmental toxicity study, sprague dawley, Oral, Gavage/Intubation, dose end: 15 GD.
The subject of data set [12] is rat. The note with it: Subchronic dermal toxicity, sprague dawley, Topical, dose end: 90 day, group: systemic, systemic / in life observation / clinical signs / erythema + systemic / in life observation / clinical signs / scabbing + systemic / ….
Data set [13] has as its system rat. The note with it: Prenatal developmental toxicity study; fischer; Inhalation; Whole-Body; dose end: 15 GD; group: maternal; systemic / in life observation / body weight / body weight + systemic / in life observation / body weight / body weight gain + systemic / in….
The subject of data set [14] is rat. The note with it: Subchronic oral toxicity in rodents, fischer, Inhalation, Whole-Body, dose end: 13 week, group: systemic.
Data set [15] concerns rabbit. The note with it: Prenatal developmental toxicity study; new zealand white; Inhalation; Whole-Body; dose end: 18 GD; group: maternal; systemic / in life observation / body weight / body weight gain.
Where [16] appears, read: systemic / organ weight / liver / absolute + systemic / clinical chemistry / hepatic mixed function oxidase (mfo) assay / hepatic mixed ….
The mark [17] stands for this setting: systemic / organ weight / liver / absolute + systemic / in life observation / clinical signs / arrhythmia + systemic / in life observation….
The mark [18] stands for this setting: systemic / clinical chemistry / [other] / [other] + systemic / clinical chemistry / cytochrome p450, nos / cytochrome p450, nos + systemic….
Setting [19] is: systemic / organ weight / liver / relative to body weight.
Where [20] appears, read: systemic / clinical chemistry / hepatic mixed function oxidase (mfo) assay / hepatic mixed function oxidase (mfo) assay.
The mark [21] stands for this setting: systemic / hematology / erythrocyte (rbc) count differential / erythrocyte (rbc) + systemic / in life observation / mortality / mortality + ….
The mark [22] stands for this setting: systemic / clinical chemistry / cholesterol / cholesterol + systemic / clinical chemistry / globulins / globulins + systemic / clinical ….
Setting [23] is: group: developmental, developmental / developmental malformation / kidney / dilatation + developmental / developmental malformation / ureter / distended.
Where [24] appears, read: group: maternal, systemic / in life observation / body weight / body weight.
Where [25] appears, read: systemic / clinical chemistry / alanine aminotransferase (alt/sgpt) / alanine aminotransferase (alt/sgpt) + systemic / clinical chemistry / ….
[26] abbreviates: systemic / in life observation / clinical signs / urogenital staining + systemic / organ weight / kidney / relative to body weight.

Broadly, the LOAEL is the lowest tested level that showed an adverse finding. As a reminder, the NOAEL is the highest dose or exposure tested at which no adverse effect was seen. On to `NC(=O)N(O)Cc1ccc2c(c1)CCCN2CCCc1ccccc1`, for which the LEL in data set [1] was determined as 200 mg/kg/day; in data set [2] (setting [16]), 5 mg/kg/day; in [3], 150 mg/kg/day; in data set [4] (setting [19]) it was 50 mg/kg/day; in data set [5], 200 mg/kg/day; in [6] (setting [20]) it was 10 mg/kg/day. Also, the LEL in data set [7] came out at 400 mg/kg/day; in data set [8] it was 200 mg/kg/day; in data set [9], 300 mg/kg/day; in data set [10] (systemic / clinical chemistry / triglycerides / triglycerides + systemic / organ weight / liver / relative to body weight + systemic / …), 32 mg/kg/day. Also, the LOAEL is over 200 mg/kg/day in [1]; over 100 mg/kg/day in data set [2] (setting [17]); over 150 mg/kg/day in [3]; over 200 mg/kg/day in data set [4] (setting [18]); over 200 mg/kg/day in [5]; over 200 mg/kg/day in data set [6] (setting [21]). For the same compound, the lowest-observed-adverse-effect level (LOAEL) in data set [7] is over 400 mg/kg/day; in data set [8], over 200 mg/kg/day; in data set [9] it was over 300 mg/kg/day; in [10] (setting [22]), over 100 mg/kg/day. Moreover, the NEL in data set [1] was under 200 mg/kg/day; in data set [2] (setting [16]), under 5 mg/kg/day; in data set [3] it was under 150 mg/kg/day; in data set [4] (setting [19]), under 50 mg/kg/day; in data set [5], under 200 mg/kg/day; in data set [6] (setting [20]), under 10 mg/kg/day. For the same compound, the NEL in data set [7] is under 400 mg/kg/day; in data set [8] it was under 200 mg/kg/day; in data set [9], under 300 mg/kg/day; in [10] (setting [22]) it was 10 mg/kg/day. The no-observed-adverse-effect level (NOAEL) was at least 200 mg/kg/day in data set [1]; at least 100 mg/kg/day in data set [2] (setting [17]); at least 150 mg/kg/day in data set [3]; at least 200 mg/kg/day in data set [4] (setting [18]); at least 200 mg/kg/day in data set [5]; at least 200 mg/kg/day in [6] (setting [21]). Further, the no-observed-adverse-effect level (NOAEL) in data set [7] is at least 400 mg/kg/day; in data set [8], at least 200 mg/kg/day; in [9], at least 300 mg/kg/day; in [10] (setting [22]), at least 100 mg/kg/day.

Regarding `CCN1CN(CC)CN(CC)C1` [1,3,5-Triethylhexahydro-s-triazine], in [11] (setting [23]), the LEL is 150 mg/kg/day, the lowest-observed-adverse-effect level (LOAEL) came out at 150 mg/kg/day, the NEL was determined as 75 mg/kg/day and the NOAEL is 75 mg/kg/day. In data set [11] (setting [24]), the LEL was 150 mg/kg/day, the LOAEL came out at 150 mg/kg/day, the NEL worked out at 75 mg/kg/day and the NOAEL was found to be 75 mg/kg/day. Also, in [12], the LEL turned out to be 10 mg/kg/day, the LOAEL worked out at 10 mg/kg/day, the NEL is under 10 mg/kg/day and the NOAEL was under 10 mg/kg/day.

With `CCCCCCOCCO` [2-(Hexyloxy)ethanol], in data set [13], the LEL worked out at 79.2 ppm, the lowest observed adverse effect level (LOAEL) is over 79.2 ppm, the NEL was 41.1 ppm and the no-observed-adverse-effect level (NOAEL) is at least 79.2 ppm. In addition, in data set [14] (setting [25]), the lowest observed adverse effect level (LOAEL) is over 71 ppm and the no observed adverse effect level (NOAEL) is at least 71 ppm. Also, in [14] (setting [26]), the LEL is 20 ppm and the NEL was under 20 ppm. In data set [15], this compound registered an LEL of 79.2 ppm, an LOAEL of over 79.2 ppm, an NEL of 41.1 ppm and a no-observed-adverse-effect level (NOAEL) of at least 79.2 ppm.
